Measurements: publication PMC6491784, “Para-Halogenation Affects Monoamine Transporter Inhibition Properties and Hepatocellular Toxicity of Amphetamines and Methcathinones” (Frontiers in Pharmacology, 2019)

Legend:
human NET = biological target: T1, human NET (Homo sapiens, UniProt P23975); assay: Norepinephrine uptake inhibition in hNET-transfected HEK 293 cells; format: cell-based
T1 construct: expressed in transfected cells; host or cells: HEK 293 (stably transfected)

human DAT = biological target: T2, human DAT (Homo sapiens, UniProt Q01959); assay: Dopamine uptake inhibition in hDAT-transfected HEK 293 cells; format: cell-based
T2 construct: expressed in transfected cells; host or cells: HEK 293 (stably transfected)
T2 sequence (Q01959 whole entry): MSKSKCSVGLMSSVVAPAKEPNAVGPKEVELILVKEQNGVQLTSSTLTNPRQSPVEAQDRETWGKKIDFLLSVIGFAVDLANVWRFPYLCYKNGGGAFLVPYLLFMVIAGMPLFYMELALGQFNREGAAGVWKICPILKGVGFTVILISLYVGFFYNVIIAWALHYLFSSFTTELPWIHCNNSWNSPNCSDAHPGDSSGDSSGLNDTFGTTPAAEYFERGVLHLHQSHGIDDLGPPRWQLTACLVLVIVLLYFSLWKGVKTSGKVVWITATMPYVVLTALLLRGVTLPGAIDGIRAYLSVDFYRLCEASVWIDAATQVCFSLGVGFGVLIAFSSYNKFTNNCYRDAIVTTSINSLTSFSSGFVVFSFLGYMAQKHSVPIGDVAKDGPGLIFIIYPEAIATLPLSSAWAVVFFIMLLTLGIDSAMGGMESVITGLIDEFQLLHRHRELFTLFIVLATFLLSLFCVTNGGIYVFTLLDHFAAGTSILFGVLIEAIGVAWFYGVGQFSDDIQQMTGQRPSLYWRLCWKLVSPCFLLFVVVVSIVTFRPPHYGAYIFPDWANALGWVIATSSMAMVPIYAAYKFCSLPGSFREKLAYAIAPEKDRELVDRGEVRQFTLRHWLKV

human SERT = biological target: T3, human SERT (Homo sapiens, UniProt P31645); assay: Serotonin uptake inhibition in hSERT-transfected HEK 293 cells; format: cell-based
T3 construct: expressed in transfected cells; host or cells: HEK 293 (stably transfected)
T3 sequence (P31645 whole entry): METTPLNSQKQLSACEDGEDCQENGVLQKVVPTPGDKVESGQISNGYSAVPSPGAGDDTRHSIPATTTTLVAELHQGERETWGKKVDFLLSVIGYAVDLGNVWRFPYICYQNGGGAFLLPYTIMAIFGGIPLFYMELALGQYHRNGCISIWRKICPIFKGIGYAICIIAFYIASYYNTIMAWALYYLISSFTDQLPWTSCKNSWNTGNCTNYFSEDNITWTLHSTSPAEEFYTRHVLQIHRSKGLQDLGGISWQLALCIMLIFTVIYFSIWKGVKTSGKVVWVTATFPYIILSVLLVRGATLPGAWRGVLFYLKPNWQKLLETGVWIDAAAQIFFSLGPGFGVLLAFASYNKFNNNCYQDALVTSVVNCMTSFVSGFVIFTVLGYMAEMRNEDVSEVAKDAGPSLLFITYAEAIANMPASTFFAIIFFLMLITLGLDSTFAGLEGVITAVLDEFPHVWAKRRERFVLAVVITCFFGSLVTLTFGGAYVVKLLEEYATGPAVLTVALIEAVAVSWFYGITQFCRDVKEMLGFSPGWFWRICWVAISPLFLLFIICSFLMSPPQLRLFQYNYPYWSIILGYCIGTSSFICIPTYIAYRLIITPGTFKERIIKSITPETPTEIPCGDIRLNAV

HepG2 cells [1] = assay: Cell membrane integrity (ToxiLight BioAssay); format: cell-based, human; conditions: HepG2, 24 h exposure; tested up to 2 mM
Procedure: Cell membrane integrity loss was assessed with the ToxiLight BioAssay Kit (Lonza, Basel, Switzerland) as a marker of cytotoxicity. Briefly, HepG2 cells were seeded in a 96-well plate at a density of 25,000 cells per well. The following day, the cells were treated with 100 μl of the compounds of interest dissolved in medium (0.25, 0.5, 1.0, and 2.0 mM of each drug, and additionally, 0.1 mM of 4-fluoroamphetamine and 4-chloroamphetamine). Triton X-100 (0.5%) was chosen as positive control to induce cell lysis. After 24 h, 50 μl of the ToxiLight assay buffer was added to 20 μl of the supernatant of the drug treatments. After 5 min incubation under shaking, luminescence was measured with a M200 Pro Infinity plate reader (Tecan, Männedorf, Switzerland) and compared to medium control. The amount of viable cells (no cell membrane integrity loss) was calculated in relation to untreated cells and cells lysed with Triton X-100, which were determined to represent 100% and 0% viable cells, respectively.
(§1) All statistical analyses were performed using GraphPad Prism 7.0c (GraphPad Software, La Jolla, CA, USA). For toxicology assays, differences between control and test drugs were calculated with ANOVA followed by Dunett’s test. p below 0.05 was considered statistically significant. Monoamine uptake data were fit by nonlinear regression to variable slope sigmoidal dose-response curves to assess IC50 values.

HepG2 cells [2] = assay: ATP content (CellTiter-Glo); format: cell-based, human; conditions: HepG2, 24 h exposure
Procedure: The ATP content was assessed with the CellTiter-Glo Luminescent Cell Viability Assay (Promega, Dübendorf, Switzerland). Briefly, HepG2 cells were seeded in a 96-well plate at a density of 25,000 cells per well. The following day, the cells were treated with 100 μl of the test substances dissolved in medium (0.25, 0.5, 1.0, and 2.0 mM of each drug, and additionally, 0.1 mM of 4-fluoroamphetamine and 4-chloroamphetamine). Triton X-100 (0.5%) was chosen as positive control to induce cell lysis. After 24 h incubation, 50 μl of the supernatant was discarded, and 50 μl of CellTiter-Glo reagent was added to each well. The plate was then shaken for 15 min at room temperature to induce cell lysis. Thereafter, luminescence was measured with a M200 Pro Infinity plate reader (Tecan, Männedorf, Switzerland) and compared to medium control.
as §1

HepG2 cells [3] = assay: Cellular oxygen consumption rate (Seahorse XF24); format: cell-based, human; conditions: HepG2, 24 h exposure; for Concentration decreasing maximal respiratory capacity: OCR after FCCP; for Concentration disrupting cellular respiration: investigated range ≤2 mM
Procedure: The cellular oxygen consumption rate (OCR) was measured with a Seahorse XF24 Analyzer (Seahorse Biosciences, North Billerica, MA, USA). Briefly, HepG2 cells were seeded in a poly-D-lysine coated Seahorse XF24 cell culture microplate at a density of 100,000 cells per well. The following day, the cells were treated with the compounds of interest dissolved in 100 μl culture medium. After 24 h incubation, the medium was removed, and the cells were washed twice with pre-warmed and unbuffered DMEM (4 mM L-glutamate, 1 mM pyruvate, 1 g/L glucose, 63.3 mM sodium chloride, pH 7.4). Thereafter, 750 μl of unbuffered DMEM was added to each well, and the plate was incubated in a CO2 free incubator for 40 min at 37°C. The ports of the XF24 assay cartridge were then loaded with oligomycin, trifluoromethoxy carbonylcyanide phenylhydrazone (FCCP), or rotenone at a final assay concentration of 1 μM, and the cartridge was loaded into the Seahorse XF24 Analyzer. First, oligomycin was injected to inhibit mitochondrial phosphorylation, allowing a quantification of proton leak. Second, oxidative phosphorylation was uncoupled from ATP synthesis by FCCP to determine the maximal respiratory capacity of the cells. Third, rotenone was injected to inhibit complex I of the electron transport chain in order to assess for extramitochondrial respiration, which was then subtracted from basal, leak, and maximal respiration. The protein content was determined using sulforhodamine B staining. The cells were fixed with 100 μl trichloroacetic acid (50% [w/v]), added to each well of the assay plate. After 1 h at 4°C, the cells were washed with deionized water and stained with sulforhodamine B (0.4% [w/v], in 1% [v/v] acetic acid). After 20 min, the cells were rapidly washed with 1% (v/v) acetic acid, and the incorporated dye was solubilized with 100 μl of 10 mM TRIS base. The absorbance was then measured at 490 nm.
as §1

HepG2 cells [4] = assay: Mitochondrial superoxide production (MitoSOX); format: cell-based, human; conditions: HepG2, 24 h exposure
Procedure: Briefly, HepG2 cells were seeded in a 96-well plate at a density of 25,000 cells per well. The following day, the cells were treated with 100 μl of the test substances dissolved in medium (0.25, 0.5, 1.0, and 2.0 mM of each drug, and additionally, 0.1 mM of 4-fluoroamphetamine and 4-chloroamphetamine). Amiodarone (50 μM) was included as positive control. After 24 h incubation, 100 μl of MitoSOX reagent (2.5 μM) was added to each well for 10 min at 37°C protected from light. After that, fluorescence was measured at 510/580 nm with a M200 Pro Infinity plate reader (Tecan, Männedorf, Switzerland). The protein content was assessed with the Pierce BCA Protein Assay Kit (Thermo Fisher Scientific, Basel, Switzerland).
as §1

HepG2 cells [5] = assay: Mechanisms of cell death (annexin V / propidium iodide flow cytometry); format: cell-based, human; conditions: HepG2, 24 h exposure; for Main mechanism of cell death: 4-chloroamphetamine at 0.5 mM; for Concentration causing significant reduction in cell viability (annexin V staining): highest concentration 2 mM
Description: Annexin V, a Ca^2+-dependent phospholipid-binding protein that has a high affinity for phosphatidylserine, was used to determine the percentage of apoptotic cells. Phosphatidylserine is located in the inner cytoplasmic surface of intact cell membranes; in apoptotic cells, phosphatidylserine is translocated to the outer leaflet of the plasma membrane where annexin V binds to it. To assess the percentage of dead cells composed of necrotic and late apoptotic cells, propidium iodide, a red fluorescent dye not permeable to live and apoptotic cells but able to stain permeable necrotic cells by binding to the nucleic acid in the cell, was used. Briefly, 100,000 HepG2 cells per well were seeded in a 48-well plate and cultured overnight. The following day, the cells were treated with 250 μl of the compounds of interest dissolved in medium at concentrations selected based on ATP depletion and cell membrane disruption. Doxorubicin (0.5 μM) was included as positive control. After incubation for 24 h, the cells were harvested with 0.05% trypsin and washed with phosphate buffered saline (pH = 7.4). […] After 15 min incubation in the dark, the cells were analyzed with a CytoFLEX flow cytometer (Beckman Coulter, IN, USA) gating for 10,000 cells.
as §1

T1 sequence (P23975 whole entry): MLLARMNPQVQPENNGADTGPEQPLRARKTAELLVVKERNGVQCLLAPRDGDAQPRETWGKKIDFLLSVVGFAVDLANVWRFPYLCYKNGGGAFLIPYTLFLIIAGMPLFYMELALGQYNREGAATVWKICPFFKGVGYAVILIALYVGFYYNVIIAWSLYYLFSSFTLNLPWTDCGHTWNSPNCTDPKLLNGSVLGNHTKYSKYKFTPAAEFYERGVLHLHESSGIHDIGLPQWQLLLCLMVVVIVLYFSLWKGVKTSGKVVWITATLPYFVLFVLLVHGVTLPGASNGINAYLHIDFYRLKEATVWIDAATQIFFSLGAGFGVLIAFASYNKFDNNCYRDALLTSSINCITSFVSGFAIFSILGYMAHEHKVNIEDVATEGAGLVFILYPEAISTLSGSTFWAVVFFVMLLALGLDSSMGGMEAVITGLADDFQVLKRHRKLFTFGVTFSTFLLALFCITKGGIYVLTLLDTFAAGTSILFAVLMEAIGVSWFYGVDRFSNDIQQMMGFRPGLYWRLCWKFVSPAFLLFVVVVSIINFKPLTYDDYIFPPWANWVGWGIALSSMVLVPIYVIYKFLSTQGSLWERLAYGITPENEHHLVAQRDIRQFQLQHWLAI

Structure (SMILES) | IC50 (human NET) [nM] | DAT/SERT ratio (human DAT) | IC50 (human DAT) [nM] | IC50 (human SERT) [nM] | Concentration causing significant cell membrane integrity loss (HepG2 cells [1]) [µM] | Concentration at which significant depletion of ATP was observed (HepG2 cells [2]) [µM] | ATP content at 0.5 mM (HepG2 cells [2]; 0.5 mM) | Concentration decreasing maximal respiratory capacity (HepG2 cells [3]) [µM] | Concentration at which significant increase in mitochondrial superoxide was observed (HepG2 cells [4]) [µM] | Main mechanism of cell death (HepG2 cells [5]) | Concentration causing significant reduction in cell viability (annexin V staining) (HepG2 cells [5]) [µM] | Concentration showing signs of uncoupling of cellular respiration from ATP synthesis (HepG2 cells [3]; OCR) [µM] | Concentration disrupting cellular respiration (HepG2 cells [3]) [µM] | Amount of necrotic and apoptotic cells versus control at 2 mM (HepG2 cells [5])
CC(N)Cc1ccc(Cl)cc1 (centres unmarked) [4-Chloroamphetamine] | 320 | 0.14 (0.07–0.25) | 3600 | 490 | 500 | 100 | almost complete ATP depletion | 100 | 500 | necrosis | 500 |  |  | 
CNC(C)C(=O)c1ccc(Cl)cc1 (centres unmarked) [4-Chloromethcathinone, 4-chloromethcathinone] | 430 | 0.45 (0.25–0.83) | 5100 | 2300 | 2000 | 1000 |  | 1000 | 1000 | Apoptosis | 1000 | 1000 |  | 
CC(N)Cc1ccc(F)cc1 (centres unmarked) [4-Fluoroamphetamine, 4-fluoroamphetamine] | 150 | 3.6 (1.9–6.5) | 3900 | 14000 | 2000 | 500 |  | 1000 | 1000 | Apoptosis | 1000 |  |  | 
CNC(C)C(=O)c1ccc(F)cc1 (centres unmarked) [4-Fluoromethcathinone, 4-fluoromethcathinone] | 350 | 5.6 (3.3–9.4) | 6600 | 37000 | > 2000 | 1000 |  |  | 2000 |  | > 2000 |  | > 2000 | did not significantly differ from control incubations
CC(N)Cc1ccccc1 (centres unmarked) [Amphetamine] |  |  |  |  | 2000 | 1000 |  |  | 2000 |  |  |  |  | did not significantly differ from control incubations
CNC(C)C(=O)c1ccccc1 (centres unmarked) [Methcathinone, methcathinone] | 120 | 34 (20–57) | 1600 | 54000 | > 2000 | 2000 |  |  | 2000 |  | > 2000 |  | > 2000 | did not significantly differ from control incubations
